The values below come from patent US20230174535A1, “INHIBITORS OF FIBROBLAST GROWTH FACTOR RECEPTOR KINASES” (Kinnate Biopharma Inc., priority 2019, published 2023).

The subject of test [1] is SNU-16 cells. Briefly: SNU-16 cell-based viability assay (CellTiter-Glo). Particulars: Homo sapiens. From the text:
For determining the covalent nature of compounds, a simple cell-based assay was employed. SNU-16 cells were obtained from ATCC (Cat #CRL-5974; American Type Culture Collection; Manassas, Va. 20110) for this assay. SNU-16 is a cultured line derived in 1987 by J. Park and associates from ascites of a patient with poorly differentiated gastric carcinoma of the stomach, and cells were collected from the patient prior to chemotherapy. The cells express the surface glycoproteins carcinoembryonic antigen (CEA) and TAG-72. No evidence of amplification or rearrangements has been noted in the N-myc, L-myc, myb and EGF receptor genes, although the c-myc proto-oncogene is amplified. There was no expression of the following genes: N-myc, L-myc, c-cis, IGF-2, or gastrin releasing peptide. These cells are known to have an FGFR2 amplification and are therefore relevant for the compound testing at hand (1). For this assay, cells were plated on poly-D-lysine to maintain attachment. Cells were either exposed to compound for 2 hours or 72 hours to test the ability of the compound to stay on target after binding. Briefly, 80 μL cell solution containing 5000 SNU-16 cells was plated per well into 96-well Poly-D-Lysine Cellware plate and incubated in 37° C. incubator overnight to facilitate adherence. Compounds were solubilized fresh from powder as dimethylsulfoxide stocks (DMSO), and plated as half log, 9 point dilutions in DMSO and then plated into cell media containing RPMI1640+10% FBS for ease of transfer without disrupting cells. Total volume in cells was 100 uL. For cells exposed to compound for two hours, cells were incubated in 37° C. incubator for 2 hours, upon which time plates were removed and cells were centrifuged at 1500 rpm for 5 min, followed by removal of all supernatant, and the re-dispense 100 μL of RPMI1640+10% FBS per well. This was repeated twice. Plates were put back into the incubator for 72 hours. For cells exposed to compound for 72 hours, plates were removed from the incubator for the time of washing but not disturbed, and then placed back in the incubator without washing. Assay plates were read for total ATP by luminescent CTG signal at the end of the 72 hour incubation by adding 100 μL of CTG (Cell TiterGlo: Cat #G9241; Promega Corporation, Madison, Wis., 53711) per well, followed by gently agitating the contents for 2 min on the plate shaker, and incubating the plates for 10 min at room temperature in dark. […] Clin Cancer Res 2010; 16:5750-8.

Test [2] has as its target T1, Human FGFR2 (V565F) (Homo sapiens, UniProt P21802, V564F).
T1 construct: purchased Reaction Biology Corporation (contract assay; enzyme is the CRO's own)
Briefly: FGFR2 V565F mutation kinase assay (Reaction Biology HotSpot). The settings on record: 100 uM ATP. In kind it is biochemical. As for the experimental part: Biochemical assays were run at Reaction Biology (Reaction Biology Corporation, 1 Great Valley Parkway, Suite 2, Malvern, Pa. 19355, USA). The Reaction Biology (http://www.reactionbiology.com) HotSpot assay platform was used to measure kinase/inhibitor interactions as described previously (Anastassiadis et al., 2011). In brief, for each reaction, kinase and substrate were mixed in a buffer containing 20 mM HEPES (pH 7.5), 10 mM MgCl2, 1 mM EGTA, 0.02% Brij35, 0.02 mg/mL BSA, 0.1 mM Na3VO4, 2 mM DTT, and 1% DMSO. All compounds were in powder form and freshly solubilized in DMSO for assays. Compounds were then added to each reaction mixture via acoustic dispensing using an ECHO 550 nanoliter dispenser. For Human FGFR2 wildtype testing, a peptide substrate, poly[Glu:Tyr] (4:1) was used to promote the reaction at a concentration of 0.2 mg/ml, with a final ATP concentration as determined by Reaction Biology. For Human FGFR2 (V565F) testing, a peptide substrate, poly[Glu:Tyr] (4:1) was used to promote the reaction at a concentration of 0.2 mg/ml, with a final ATP concentration as determined by Reaction Biology. Compounds were tested in 10-dose IC50 mode with a 3-fold serial dilution. After a 20-min incubation, ATP (Sigma-Aldrich, St. Louis, Mo. 63178) and [g33P] […] Reactions were carried out at room temperature for 2 hr and spotted onto P81 ion exchange cellulose chromatography paper (Reaction Biology). Filter paper was washed in 0.75% phosphoric acid to remove unincorporated ATP. The percent remaining kinase activity relative to a vehicle-containing (DMSO) kinase reaction was calculated for each kinase/inhibitor pair. IC50 values were calculated using Prism 5 (GraphPad).

In test [3] the target is T2, Human FGFR2 wildtype (Homo sapiens, UniProt P21802).
T2 construct: purchased Reaction Biology Corporation (contract assay; enzyme is the CRO's own)
Briefly: FGFR2 wildtype kinase assay (Reaction Biology HotSpot). The settings on record: ATP at Km; read-out: FGFR2 (WT) Km IC50. In kind it is biochemical. As for the experimental part: Biochemical assays were run at Reaction Biology (Reaction Biology Corporation, 1 Great Valley Parkway, Suite 2, Malvern, Pa. 19355, USA). The Reaction Biology (http://www.reactionbiology.com) HotSpot assay platform was used to measure kinase/inhibitor interactions as described previously (Anastassiadis et al., 2011). In brief, for each reaction, kinase and substrate were mixed in a buffer containing 20 mM HEPES (pH 7.5), 10 mM MgCl2, 1 mM EGTA, 0.02% Brij35, 0.02 mg/mL BSA, 0.1 mM Na3VO4, 2 mM DTT, and 1% DMSO. All compounds were in powder form and freshly solubilized in DMSO for assays. Compounds were then added to each reaction mixture via acoustic dispensing using an ECHO 550 nanoliter dispenser. For Human FGFR2 wildtype testing, a peptide substrate, poly[Glu:Tyr] (4:1) was used to promote the reaction at a concentration of 0.2 mg/ml, with a final ATP concentration as determined by Reaction Biology. For Human FGFR2 (V565F) testing, a peptide substrate, poly[Glu:Tyr] (4:1) was used to promote the reaction at a concentration of 0.2 mg/ml, with a final ATP concentration as determined by Reaction Biology. Compounds were tested in 10-dose IC50 mode with a 3-fold serial dilution. After a 20-min incubation, ATP (Sigma-Aldrich, St. Louis, Mo. 63178) and [g33P] ATP (specific activity 10 microCi/microliter) purchased at PerkinElmer (Boston, Mass., 02118 Cat #BLU 003H250UC) were added at a final total concentration of 10 mM. Reactions were carried out at room temperature for 2 hr and spotted onto P81 ion exchange cellulose chromatography paper (Reaction Biology). Filter paper was washed in 0.75% phosphoric acid to remove unincorporated ATP. The percent remaining kinase activity relative to a vehicle-containing (DMSO) kinase reaction was calculated for each kinase/inhibitor pair. IC50 values were calculated using Prism 5 (GraphPad).

[4] abbreviates: cells exposed to compound for 2 hours, washed, read after 72 hour incubation, read-out: SNU-16 IC50 (nM) 2 h.
[5] abbreviates: cells exposed to compound for 72 hours, no washing, read-out: SNU-16 IC50 (nM) 72 h.

Like-named read-outs stand apart in the source and are kept apart here.

T2 sequence (P21802 22-821): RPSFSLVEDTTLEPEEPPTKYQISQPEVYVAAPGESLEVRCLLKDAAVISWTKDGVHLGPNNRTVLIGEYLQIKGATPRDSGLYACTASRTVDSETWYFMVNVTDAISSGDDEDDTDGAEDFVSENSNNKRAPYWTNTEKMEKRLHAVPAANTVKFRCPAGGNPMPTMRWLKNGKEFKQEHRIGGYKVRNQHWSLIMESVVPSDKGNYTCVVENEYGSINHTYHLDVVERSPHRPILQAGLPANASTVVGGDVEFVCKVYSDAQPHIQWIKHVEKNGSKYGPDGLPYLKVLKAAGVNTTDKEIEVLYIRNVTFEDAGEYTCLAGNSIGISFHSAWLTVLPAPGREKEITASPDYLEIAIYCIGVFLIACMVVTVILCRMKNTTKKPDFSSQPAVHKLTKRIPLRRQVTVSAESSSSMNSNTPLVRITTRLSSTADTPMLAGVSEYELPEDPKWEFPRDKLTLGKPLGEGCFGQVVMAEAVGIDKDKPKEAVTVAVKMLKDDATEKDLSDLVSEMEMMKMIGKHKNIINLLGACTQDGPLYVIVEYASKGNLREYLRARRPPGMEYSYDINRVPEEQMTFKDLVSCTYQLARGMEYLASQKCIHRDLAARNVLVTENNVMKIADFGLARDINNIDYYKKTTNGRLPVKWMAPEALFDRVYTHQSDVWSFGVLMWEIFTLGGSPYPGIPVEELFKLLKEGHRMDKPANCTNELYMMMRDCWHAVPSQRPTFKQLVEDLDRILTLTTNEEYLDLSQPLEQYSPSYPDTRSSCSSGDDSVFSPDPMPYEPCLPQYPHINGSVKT
T1 sequence (P21802 22-822 isoform P21802-3 V565F limits assumed): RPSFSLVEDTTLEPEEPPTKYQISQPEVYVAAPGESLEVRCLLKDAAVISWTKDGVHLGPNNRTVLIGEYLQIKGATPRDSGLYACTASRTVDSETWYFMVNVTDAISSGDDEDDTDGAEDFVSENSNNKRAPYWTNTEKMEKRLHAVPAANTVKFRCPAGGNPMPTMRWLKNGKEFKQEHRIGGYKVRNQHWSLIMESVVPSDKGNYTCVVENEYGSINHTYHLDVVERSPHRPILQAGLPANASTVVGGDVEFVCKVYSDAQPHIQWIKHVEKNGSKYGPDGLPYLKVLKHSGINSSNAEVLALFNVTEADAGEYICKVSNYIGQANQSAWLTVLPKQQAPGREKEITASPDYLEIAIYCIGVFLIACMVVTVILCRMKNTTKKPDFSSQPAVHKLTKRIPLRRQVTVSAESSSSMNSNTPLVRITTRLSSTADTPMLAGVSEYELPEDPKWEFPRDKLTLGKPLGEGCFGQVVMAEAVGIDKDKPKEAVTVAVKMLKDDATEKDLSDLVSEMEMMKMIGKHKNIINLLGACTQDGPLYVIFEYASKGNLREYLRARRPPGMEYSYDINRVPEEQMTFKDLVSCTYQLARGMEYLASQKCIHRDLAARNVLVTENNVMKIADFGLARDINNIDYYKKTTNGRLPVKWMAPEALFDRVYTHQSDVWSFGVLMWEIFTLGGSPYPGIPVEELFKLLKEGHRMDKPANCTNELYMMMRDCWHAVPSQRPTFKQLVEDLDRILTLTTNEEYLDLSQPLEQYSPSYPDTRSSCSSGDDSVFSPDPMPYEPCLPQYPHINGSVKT

`C=CC(=O)N1CC(c2cc(C#Cc3cc(OC)cc(OC)c3F)c3c(N)ncnn23)C[C@@H]1COC` (single isomer, unassigned) [Chemical Synthesis Example 5]: the values for the IC50 in test [1] (setting [4]) and in test [1] (setting [5]) were 1000 to 10000 nM and 100 to 1000 nM, respectively.
On the same counts, the results for `C=CC(=O)N1C[C@@H](c2cc(C#Cc3cc(OC)cc(OC)c3)c3c(N)ncnn23)C[C@@H]1COC` (single isomer, unassigned) [Chemical Synthesis Example 1] are 1000 to 10000 nM and 10 to 100 nM.
Consider `C=CC(=O)N1C[C@H](c2cc(C#Cc3cc(OC)cc(OC)c3)c3c(N)ncnn23)C[C@@H]1COC` (single isomer, unassigned) [Chemical Synthesis Example 2], for which the IC50 was 10 to 100 nM in test [2], not above 10 nM in test [3], not above 10 nM in test [1] (setting [4]) and not above 10 nM in test [1] (setting [5]).
On to `C=CC(=O)N1CC(c2cc(C#Cc3cc(OC)cc(OC)c3F)c3c(N)ncnn23)C[C@@H]1COC` (single isomer, unassigned) [Chemical Synthesis Example 6], for which the IC50 in test [2] was 10 to 100 nM; in test [3], not above 10 nM; in test [1] (setting [4]) it was not above 10 nM; in test [1] (setting [5]) it was not above 10 nM.
For `C=CC(=O)N1CC(c2cc(C#Cc3c(F)c(OC)cc(OC)c3F)c3c(N)ncnn23)C[C@@H]1COC` (single isomer, unassigned) [Chemical Synthesis Example 3], the IC50 was in the range of 1000 to 10000 nM in test [1] (setting [4]) and 100 to 1000 nM in test [1] (setting [5]).
In the case of `C=CC(=O)N1CC(c2cc(C#Cc3c(F)c(OC)cc(OC)c3F)c3c(N)ncnn23)C[C@@H]1COC` (single isomer, unassigned) [Chemical Synthesis Example 4], the IC50 in test [2], in test [3], in test [1] (setting [4]) and in test [1] (setting [5]) was not above 10 nM each time.
